Test results: patent publication US10703755B2, “Substituted purine derivative” (SUMITOMO DAINIPPON PHARMA CO., LTD., priority 2016, dated 2020)

Target: human TLR7 (Homo sapiens (Human), UniProt Q9NYK1)
Test: Test for evaluating the inhibition of the activation of human TLR7 (SEAP reporter, TLR7/NF-κB/SEAPorter HEK293 cell)
Format: cell-based
Conditions: R-848 200 nmol/L; for IC50: SEAP reporter; for inhibitory effect against TLR7 in the test for evaluating inhibition of the activation of TLR7: SEAP activity, result in words
Outline: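 The readout is secreted alkaline phosphatase under NF-κB response-element control in TLR7/NF-κB/SEAPorter HEK293 cells, which stably express full-length human TLR7. Cells were plated at 5×10^4 per well and grown overnight at 37° C, 5% CO2, in DMEM/10% FBS/blasticidin.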

Sequence of human TLR7 (Q9NYK1 27-1049): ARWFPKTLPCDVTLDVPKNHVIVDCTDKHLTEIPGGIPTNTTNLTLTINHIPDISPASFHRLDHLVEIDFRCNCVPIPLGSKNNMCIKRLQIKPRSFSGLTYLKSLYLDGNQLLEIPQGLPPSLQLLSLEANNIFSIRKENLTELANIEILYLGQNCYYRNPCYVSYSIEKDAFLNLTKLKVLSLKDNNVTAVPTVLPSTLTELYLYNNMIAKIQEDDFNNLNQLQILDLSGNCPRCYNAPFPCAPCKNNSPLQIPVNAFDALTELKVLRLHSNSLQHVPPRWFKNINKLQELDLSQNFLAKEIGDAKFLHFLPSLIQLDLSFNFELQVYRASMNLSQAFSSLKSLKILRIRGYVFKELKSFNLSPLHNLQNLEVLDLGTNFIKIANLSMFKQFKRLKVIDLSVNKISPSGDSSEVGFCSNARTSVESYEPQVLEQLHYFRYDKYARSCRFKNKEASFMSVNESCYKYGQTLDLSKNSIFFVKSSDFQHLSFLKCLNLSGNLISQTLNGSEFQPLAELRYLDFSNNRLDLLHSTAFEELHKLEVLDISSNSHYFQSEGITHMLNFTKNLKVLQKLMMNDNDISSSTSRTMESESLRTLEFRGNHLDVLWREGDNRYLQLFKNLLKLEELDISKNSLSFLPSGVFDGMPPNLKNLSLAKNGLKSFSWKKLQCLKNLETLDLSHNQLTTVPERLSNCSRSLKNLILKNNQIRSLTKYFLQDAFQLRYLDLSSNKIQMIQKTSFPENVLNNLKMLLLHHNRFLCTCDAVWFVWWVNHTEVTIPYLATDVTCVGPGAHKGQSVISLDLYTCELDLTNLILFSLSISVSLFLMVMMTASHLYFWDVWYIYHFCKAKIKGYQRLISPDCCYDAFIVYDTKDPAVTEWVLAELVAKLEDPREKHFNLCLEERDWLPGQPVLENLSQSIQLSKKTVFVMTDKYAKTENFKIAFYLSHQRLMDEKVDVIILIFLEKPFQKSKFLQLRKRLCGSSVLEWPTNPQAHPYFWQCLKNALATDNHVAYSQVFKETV

Row | Structure (SMILES) | IC50 | inhibitory effect against TLR7 in the test for evaluating inhibition of the activation of TLR7
1 | CCOc1nc(N)c2nc(-c3cncc(F)c3)n(Cc3ccc(CN4C[C@@H]5C[C@H]4CN5C(C)=O)cc3)c2n1 [Example 126, 1-[(1S,4S)-5-(4-{[6-Amino-2-ethoxy-8-(5-fluoropyridin-3-yl)-9H-purin-9-yl]methyl}benzyl)-2,5-diazabicyclo[2.2.1]hept-2-yl]ethanone] | 150 nM | 
2 | CCOc1nc(N)c2nc(-c3cncc(F)c3)n(Cc3ccc(C(=O)N4CCN(C)CC4)cc3)c2n1 [Example 143, (4-{[6-Amino-2-ethoxy-8-(5-fluoropyridin-3-yl)-9H-purin-9-yl]methyl}phenyl) (4-methylpiperazin-1-yl)methanone] | 1570 nM | 
3 | CCOc1nc(C)c2nc(-c3cncc(F)c3)n(Cc3cnn(CC4COCCN4)c3)c2n1 (stereo not drawn) [Example 426] | 200 nM | 
4 | CCOc1nc(C)c2nc(-c3cncc(F)c3)n(Cc3ccc(CN4C[C@@H]5C[C@H]4CN5CC)cc3)c2n1 [Example 131, 2-ethoxy-9-(4-{[(1S,4S)-5-ethyl-2,5-diazabicyclo[2.2.1]hept-2-yl]methyl}benzyl)-8-(5-fluoropyridin-3-yl)-6-methyl-9H-purine] | 7 nM | potent inhibitory effect against TLR7
5 | CCOc1nc(N)c2nc(-c3cncc(F)c3)n(Cc3ccc(CN4CCN(C)C(=O)C4)cc3)c2n1 [Example 93] | 290 nM | 
6 | COCCOc1nc(N)c2nc(-c3cncc(F)c3)n(Cc3ccc(CN4CCOCC4)cc3)c2n1 [Example 88] | 900 nM | 
7 | CCOc1nc(C)c2nc(-c3cncc(F)c3)n(Cc3ccc(CN4C[C@@H]5C[C@H]4CN5)cc3)c2n1 [Example 123, 9-{4-[(1S,4S)-2,5-Diazabicyclo[2.2.1]hept-2-ylmethyl]benzyl}-2-ethoxy-8-(5-fluoropyridin-3-yl)-6-methyl-9H-purine] | 33 nM | potent inhibitory effect against TLR7
